From patent US20260098017A1, “NOVEL AROMATIC RING DERIVATIVE CONTAINING AMIDE SUBSTITUTION AND USE THEREOF” (TIANJIN PHARMACEUTICAL BIOTECHNOLOGY CO., LTD., priority 2022, published 2026)

Target: Ba/F3 cell line expressing TYK2 (Homo sapiens, UniProt P29597, cells depend on it, form not given)
Test: In vitro cellular inhibition assay (Ba/F3 cell proliferation, CellTiter-Glo)
Type: cell-based
Conditions: read-out: IC50 (the source's name)
Description: The inhibitory effect of the compounds of formula (I) according to the present invention on the TYK2 signaling pathway in cells was assessed using the following method:
Instrumentation: SpectraMax Paradigm reader.
Method: in this experiment, a Ba/F3 cell line expressing TYK2 was employed to assess the effect of the compounds on cell proliferation inhibition by measuring their effects on cell activity in vitro.
Procedure: a CellTiter-Glo buffer was thawed and placed aside till room temperature. A CellTiter-Glo substrate was placed aside till room temperature and dissolved with the buffer to prepare a CellTiter-Glo working solution. To a 96-well flat bottom transparent drug plate, 98 μL of cell culture medium and 2 μL of gradient diluted compound solution were added. The drug plate was placed aside for 10 min, and then 50 μL of the CellTiter-Glo working solution was added. The drug plate was subsequently shaken on an orbital shaker for 2 min and placed aside at room temperature for an additional 10 min. Finally, the luminescence signal was measured on the SpectraMax Paradigm reader.
Data Analysis: the cell proliferation inhibition rate data were processed using the following formula:
Inhibition Rate (Inh %)=100−(RLUDrug−RLUMin)/(RLUMax−RLUMin)×100%.
The inhibition rates of compounds with different concentrations were calculated in EXCEL, and then GraphPad Prism software was employed to plot inhibition rate curve and calculate relevant parameters, including maximum and minimum cell inhibition rates, IC50 values.

| GI50 [nM] | Structure (SMILES) |
| --- | --- |
| 5 to 10 | [2H]C([2H])([2H])NC(=O)c1nnc(NC(=O)C2CC2)cc1Nc1cccc(C(=O)Nc2ccc(F)c(C)c2)c1OC [Example 32] |
| 5 to 10 | [2H]C([2H])([2H])NC(=O)c1cnc(NC(=O)C2CC2)cc1Nc1cccc(C(=O)Nc2ccc(C(F)(F)F)cc2)c1OC [Example 74] |
| 5 to 10 | [2H]C([2H])([2H])NC(=O)c1nnc(NC(=O)C2CC2)cc1Nc1cccc(C(=O)Nc2cccc(C)c2C)c1OC [Example 8] |
| 5 to 10 | [2H]C([2H])([2H])NC(=O)c1cnc(NC(=O)C2CC2)cc1Nc1cccc(C(=O)Nc2ccc(C)cn2)c1OC [Example 95] |
| 5 to 10 | [2H]C([2H])([2H])NC(=O)c1nnc(NC(=O)C2CC2)cc1Nc1cccc(C(=O)Nc2cccc(C3CC3)c2)c1OC [Example 11] |
| 5 to 10 | [2H]C([2H])([2H])NC(=O)c1cnc(NC(=O)C2CC2)cc1Nc1cccc(C(=O)Nc2cccc(C(C)C)c2)c1OC [Example 68] |
| 5 to 10 | [2H]C([2H])([2H])NC(=O)c1nnc(NC(=O)C2CC2)cc1Nc1cccc(C(=O)Nc2cccc(C)n2)c1OC [Example 40] |
| 5 to 10 | [2H]C([2H])([2H])NC(=O)c1cnc(NC(=O)C2CC2)cc1Nc1cccc(C(=O)Nc2cccc(C3CC3)c2)c1OC [Example 63] |
| 5 to 10 | [2H]C([2H])([2H])NC(=O)c1nnc(NC(=O)C2CC2)cc1Nc1cccc(C(=O)Nc2ccc(C#N)c(C)c2)c1OC [Example 30] |
| 5 to 10 | [2H]C([2H])([2H])NC(=O)c1nnc(NC(=O)C2CC2)cc1Nc1cccc(C(=O)NC(C)(C)C)c1OC [Example 105] |
| 5 to 10 | [2H]C([2H])([2H])NC(=O)c1nnc(NC(=O)C2CC2)cc1Nc1cccc(C(=O)Nc2ccc(C#N)cc2)c1OC [Example 23] |
| 5 to 10 | [2H]C([2H])([2H])NC(=O)c1nnc(NC(=O)C2CC2)cc1Nc1cccc(C(=O)Nc2cccc(F)c2)c1OC [Example 6] |
| 5 to 10 | [2H]C([2H])([2H])NC(=O)c1nnc(NC(=O)C2CC2)cc1Nc1cccc(C(=O)Nc2ncccn2)c1OC [Example 51] |
| 5 to 10 | [2H]C([2H])([2H])NC(=O)c1cnc(NC(=O)C2CC2)cc1Nc1cccc(C(=O)Nc2cncnc2)c1OC [Example 104] |
| 5 to 10 | [2H]C([2H])([2H])NC(=O)c1nnc(NC(=O)C2CC2)cc1Nc1cccc(C(=O)Nc2ccc(C)nc2)c1OC [Example 44] |
| 5 to 10 | [2H]C([2H])([2H])NC(=O)c1cnc(NC(=O)C2CC2)cc1Nc1cccc(C(=O)Nc2ccc(C3CC3)cc2)c1OC [Example 71] |
| 5 to 10 | [2H]C([2H])([2H])NC(=O)c1nnc(NC(=O)C2CC2)cc1Nc1cccc(C(=O)Nc2ccc(C)cn2)c1OC [Example 43] |
| 5 to 10 | [2H]C([2H])([2H])NC(=O)c1nnc(NC(=O)C2CC2)cc1Nc1cccc(C(=O)Nc2ncn(C)n2)c1OC [Example 36] |
| 5 to 10 | [2H]C([2H])([2H])NC(=O)c1nnc(NC(=O)C2CC2)cc1Nc1cccc(C(=O)Nc2ccccn2)c1OC [Example 48] |
| 5 to 10 | [2H]C([2H])([2H])NC(=O)c1cnc(NC(=O)C2CC2)cc1Nc1cccc(C(=O)Nc2ccccc2C)c1OC [Example 56] |

| GI50 [nM] | Structure (SMILES) |
| --- | --- |
| 5 to 10 | [2H]C([2H])([2H])NC(=O)c1nnc(NC(=O)C2CC2)cc1Nc1cccc(C(=O)Nc2ccccc2F)c1OC [Example 7] |
| 5 to 10 | [2H]C([2H])([2H])NC(=O)c1cnc(NC(=O)C2CC2)cc1Nc1cccc(C(=O)Nc2cnc(F)nc2)c1OC [Example 99] |
| 5 to 10 | [2H]C([2H])([2H])NC(=O)c1nnc(NC(=O)C2CC2)cc1Nc1cccc(C(=O)Nc2ccccc2)c1OC [Example 1] |
| 5 to 10 | [2H]C([2H])([2H])NC(=O)c1cnc(NC(=O)C2CC2)cc1Nc1cccc(C(=O)Nc2ccccn2)c1OC [Example 100] |
| 5 to 10 | [2H]C([2H])([2H])NC(=O)c1nnc(NC(=O)C2CC2)cc1Nc1cccc(C(=O)Nc2ccc(C3CC3)c(C)c2)c1OC [Example 26] |
| 5 to 10 | [2H]C([2H])([2H])NC(=O)c1cnc(NC(=O)C2CC2)cc1Nc1cccc(C(=O)Nc2ccncc2)c1OC [Example 102] |
| 5 to 10 | [2H]C([2H])([2H])NC(=O)c1cnc(NC(=O)C2CC2)cc1Nc1cccc(C(=O)Nc2cccc(C(C)(C)C)c2)c1OC [Example 69] |
| 5 to 10 | [2H]C([2H])([2H])NC(=O)c1cnc(NC(=O)C2CC2)cc1Nc1cccc(C(=O)Nc2cn(C)cn2)c1OC [Example 87] |
| 5 to 10 | [2H]C([2H])([2H])NC(=O)c1nnc(NC(=O)C2CC2)cc1Nc1cccc(C(=O)Nc2cncnc2)c1OC [Example 52] |
| 5 to 10 | [2H]C([2H])([2H])NC(=O)c1nnc(NC(=O)C2CC2)cc1Nc1cccc(C(=O)Nc2ccn(C)n2)c1OC [Example 33] |
| 5 to 10 | [2H]C([2H])([2H])NC(=O)c1cnc(NC(=O)C2CC2)cc1Nc1cccc(C(=O)Nc2ccc(OC)cc2)c1OC [Example 76] |
| 5 to 10 | [2H]C([2H])([2H])NC(=O)c1cnc(NC(=O)C2CC2)cc1Nc1cccc(C(=O)Nc2ccccc2)c1OC [Example 53] |
| 5 to 10 | [2H]C([2H])([2H])NC(=O)c1nnc(NC(=O)C2CC2)cc1Nc1cccc(C(=O)Nc2ncc(F)cn2)c1OC [Example 41] |
| 5 to 10 | [2H]C([2H])([2H])NC(=O)c1nnc(NC(=O)C2CC2)cc1Nc1cccc(C(=O)Nc2cc(C)cc(C)c2)c1OC [Example 9] |
| 5 to 10 | [2H]C([2H])([2H])NC(=O)c1cnc(NC(=O)C2CC2)cc1Nc1cccc(C(=O)Nc2cccc(C)n2)c1OC [Example 89] |
| 5 to 10 | [2H]C([2H])([2H])NC(=O)c1cnc(NC(=O)C2CC2)cc1Nc1cccc(C(=O)Nc2ccc(C3CC3)c(C)c2)c1OC [Example 78] |
| 5 to 10 | [2H]C([2H])([2H])NC(=O)c1cnc(NC(=O)C2CC2)cc1Nc1cccc(C(=O)Nc2ccc(CC)cc2)c1OC [Example 70] |
| 5 to 10 | [2H]C([2H])([2H])NC(=O)c1nnc(NC(=O)C2CC2)cc1Nc1cccc(C(=O)Nc2ccc(C3CC3)cc2)c1OC [Example 19] |
| 5 to 10 | [2H]C([2H])([2H])NC(=O)c1cnc(NC(=O)C2CC2)cc1Nc1cccc(C(=O)Nc2ccc(C(F)(F)F)c(C)c2)c1OC [Example 81] |
| 5 to 10 | [2H]C([2H])([2H])NC(=O)c1cnc(NC(=O)C2CC2)cc1Nc1cccc(C(=O)Nc2ccc(C(C)C)cc2)c1OC [Example 72] |

| GI50 [nM] | Structure (SMILES) |
| --- | --- |
| 5 to 10 | [2H]C([2H])([2H])NC(=O)c1cnc(NC(=O)C2CC2)cc1Nc1cccc(C(=O)Nc2ccc(CC)c(C)c2)c1OC [Example 77] |
| 5 to 10 | [2H]C([2H])([2H])NC(=O)c1nnc(NC(=O)C2CC2)cc1Nc1cccc(C(=O)Nc2ccc(C(C)C)c(C)c2)c1OC [Example 27] |
| 5 to 10 | [2H]C([2H])([2H])NC(=O)c1nnc(NC(=O)C2CC2)cc1Nc1cccc(C(=O)Nc2ccc(OC)cc2)c1OC [Example 24] |
| 5 to 10 | [2H]C([2H])([2H])NC(=O)c1nnc(NC(=O)C2CC2)cc1Nc1cccc(C(=O)Nc2cccc(C#N)c2)c1OC [Example 15] |
| 5 to 10 | [2H]C([2H])([2H])NC(=O)c1cnc(NC(=O)C2CC2)cc1Nc1cccc(C(=O)Nc2ccccc2F)c1OC [Example 59] |
| 5 to 10 | [2H]C([2H])([2H])NC(=O)c1cnc(NC(=O)C2CC2)cc1Nc1cccc(C(=O)Nc2ncn(C)n2)c1OC [Example 88] |
| 5 to 10 | [2H]C([2H])([2H])NC(=O)c1nnc(NC(=O)C2CC2)cc1Nc1cccc(C(=O)Nc2ccc(CC)c(C)c2)c1OC [Example 25] |
| 5 to 10 | [2H]C([2H])([2H])NC(=O)c1cnc(NC(=O)C2CC2)cc1Nc1cccc(C(=O)Nc2cccc(CC)c2)c1OC [Example 65] |
| 5 to 10 | [2H]C([2H])([2H])NC(=O)c1cnc(NC(=O)C2CC2)cc1Nc1cccc(C(=O)Nc2ccc(C(C)(C)C)cc2)c1OC [Example 73] |
| 5 to 10 | [2H]C([2H])([2H])NC(=O)c1cnc(NC(=O)C2CC2)cc1Nc1cccc(C(=O)Nc2cccnc2)c1OC [Example 101] |
| 5 to 10 | [2H]C([2H])([2H])NC(=O)c1cnc(NC(=O)C2CC2)cc1Nc1cccc(C(=O)Nc2cccc(C#N)c2)c1OC [Example 67] |
| 5 to 10 | [2H]C([2H])([2H])NC(=O)c1nnc(NC(=O)C2CC2)cc1Nc1cccc(C(=O)Nc2cccc(OC)c2)c1OC [Example 14] |
| 5 to 10 | [2H]C([2H])([2H])NC(=O)c1nnc(NC(=O)C2CC2)cc1Nc1cccc(C(=O)Nc2ccc(C(C)(C)C)cc2)c1OC [Example 21] |
| 5 to 10 | [2H]C([2H])([2H])NC(=O)c1nnc(NC(=O)C2CC2)cc1Nc1cccc(C(=O)Nc2ccc(F)nc2)c1OC [Example 46] |
| 5 to 10 | [2H]C([2H])([2H])NC(=O)c1cnc(NC(=O)C2CC2)cc1Nc1cccc(C(=O)Nc2cccc(OC)c2)c1OC [Example 66] |
| 5 to 10 | [2H]C([2H])([2H])NC(=O)c1cnc(NC(=O)C2CC2)cc1Nc1cccc(C(=O)Nc2ccc(C(C)C)c(C)c2)c1OC [Example 79] |
| 5 to 10 | [2H]C([2H])([2H])NC(=O)c1cnc(NC(=O)C2CC2)cc1Nc1cccc(C(=O)Nc2ccc(C(C)(C)C)c(C)c2)c1OC [Example 80] |
| 5 to 10 | [2H]C([2H])([2H])NC(=O)c1cnc(NC(=O)C2CC2)cc1Nc1cccc(C(=O)Nc2cccc(C)c2C)c1OC [Example 60] |
| 5 to 10 | [2H]C([2H])([2H])NC(=O)c1nnc(NC(=O)C2CC2)cc1Nc1cccc(C(=O)Nc2cnc(F)nc2)c1OC [Example 47] |
